Values quoted from earlier work in US7074797B2, “Pyrazolopyrimidines as CRF receptor antagonists” (Neurocrine Biosciences, Inc., priority 1996, dated 2006).
No end group written: not given here.

Columns and labels:
Rats [1] = conditions: ICV, animals previously familiarized with the apparatus, fifteen minute session
Rats [2] = conditions: central administration

CRF: corticotropin-releasing factor, a 41-amino acid peptide (SEEPPISLDLTFHLLREVLEMARAEQLAQQAHSNRKLMEII-NH2; ends and bridges not checked; UniProt P06850 154-194, looked up)
latency to emerge from the small chamber (Rats [1]): increases
mean time spent in the chamber (Rats [1]): increases
exploration in the elevated plus maze (Rats [2]): suppresses exploration
